The text below walks through data of the supplement of paper PMC11208160.

The nature of the data set: recombinant UMI read abundance after kanamycin selection (control-corrected) (log10(CPM+1)); higher = more efficient recombination; extreme values may be limits of the assay; sequences stand for … in AGTGCAGAGAAAATCGGCCAGTTTTCTCTGCCTGCAGTCCGCATGCCGTGGGACCCCTTGGGTTCTAACCTGTTGCCTAGATTTATGCAGCGGACTGCCTTTCTCCCAAAGTGATAAACCGG…AGGTTGGTTTCACT; site = the 11-nt donor. A digest of the protocol: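 Values, expressed as log10(CPM+1), derive from recombinant UMI counts converted to CPM, averaged across replicates and scaled by control-derived factors. Plating was with IPTG (0.07 mM) plus kanamycin or unselected, two replicates each. The screen pooled donor and donor-binding-loop pairs for the IS621 bridge recombinase in Escherichia coli.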
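Also: IS621 bridge recombinase in Escherichia coli cells against a fixed T5 target plasmid.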

In the case of “AGGTTCACATGGACCGGTTTTCCCGGTAATCCGTATTTGCC (site AGGTTCACTGG)”, the “recombinant UMI read abundance (log10)” value worked out at 2.11.

As for “AGGTTCCCATGGACCGGTTTTCCCGGTAATCCGTATTTGGG (site AGGTTCCCTCA)”, the “recombinant UMI read abundance (log10)” value was 0.0189.

For the sequence “AGGTTCCCATGGACCGGTTTTCCCGGTAATCCGTATTTGGG (site AGGTTCCCTCC)”, the “recombinant UMI read abundance (log10)” value turned out to be 0.0153.

In the case of “AGGTTCCCATGGACCGGTTTTCCCGGTAATCCGTATTTGGG (site AGGTTCCCTCG)”, the “recombinant UMI read abundance (log10)” value stood at 0.0155.

In the case of “AGGTTCCCATGGACCGGTTTTCCCGGTAATCCGTATTTGGG (site AGGTTCCCTCT)”, the “recombinant UMI read abundance (log10)” value turned out to be 0.0453.

For the sequence “AGTAAAGCATGGACCGGTTTTCCCGGTAATCCGTATTTGCA (site AGTAAAGCTTG)”, the “recombinant UMI read abundance (log10)” value stood at 1.97.

For “AGTAACGCATGGACCGGTTTTCCCGGTAATCCGTATTTGGT (site AGTAACGCTAC)”, the “recombinant UMI read abundance (log10)” value turned out to be 1.7.

As to “AGTAAGACATGGACCGGTTTTCCCGGTAATCCGTATTTGAA (site AGGAAGACTTG)”, the “recombinant UMI read abundance (log10)” value is 0.

As for “AGTAAGACATGGACCGGTTTTCCCGGTAATCCGTATTTGAA (site AGTAAGACTTT)”, the “recombinant UMI read abundance (log10)” value stood at 1.27.

Regarding “AGTAAGACATGGACCGGTTTTCCCGGTAATCCGTATTTGTC (site AGTAAGACTGA)”, the “recombinant UMI read abundance (log10)” value is 1.36.

For the sequence “AGTAAGCCATGGACCGGTTTTCCCGGTAATCCGTATTTGCA (site AGGAAGACTTG)”, the “recombinant UMI read abundance (log10)” value amounted to 0.

In the case of “AGTAAGCCATGGACCGGTTTTCCCGGTAATCCGTATTTGCA (site AGTAAGCCTTG)”, the “recombinant UMI read abundance (log10)” value came to 0.539.

As for “AGTAAGGCATGGACCGGTTTTCCCGGTAATCCGTATTTGCT (site AGAAAGGCTAG)”, the “recombinant UMI read abundance (log10)” value amounted to 1.39.

For “AGTAAGGCATGGACCGGTTTTCCCGGTAATCCGTATTTGCT (site AGCAAGGCTAG)”, the “recombinant UMI read abundance (log10)” value was found to be 1.21.

“AGTAAGGCATGGACCGGTTTTCCCGGTAATCCGTATTTGCT (site AGGAAGGCTAG)”: the “recombinant UMI read abundance (log10)” value is 0.32.

In the case of “AGTAAGGCATGGACCGGTTTTCCCGGTAATCCGTATTTGCT (site AGTAAGGCTAG)”, the “recombinant UMI read abundance (log10)” value came to 2.75.

Regarding “AGTAAGTCATGGACCGGTTTTCCCGGTAATCCGTATTTGAA (site AGTAAGTCTTT)”, the “recombinant UMI read abundance (log10)” value was determined as 2.1.

With “AGTAGCACATGGACCGGTTTTCCCGGTAATCCGTATTTGAG (site AGTAGCACTCT)”, the “recombinant UMI read abundance (log10)” value was 1.24.

In the case of “AGTAGGACATGGACCGGTTTTCCCGGTAATCCGTATTTGCA (site AGGAAGACTTG)”, the “recombinant UMI read abundance (log10)” value was 1.45.

With “AGTAGGACATGGACCGGTTTTCCCGGTAATCCGTATTTGCA (site AGTAGGACTTG)”, the “recombinant UMI read abundance (log10)” value is 2.91.

For “AGTAGGGCATGGACCGGTTTTCCCGGTAATCCGTATTTGAG (site AGTAGGGCTCT)”, the “recombinant UMI read abundance (log10)” value amounted to 1.41.

“AGTCAAGCATGGACCGGTTTTCCCGGTAATCCGTATTTGAA (site AGTCAAGCTTT)”: the “recombinant UMI read abundance (log10)” value was found to be 1.39.

For “AGTCCAACATGGACCGGTTTTCCCGGTAATCCGTATTTGTA (site AGTCCAACTTA)”, the “recombinant UMI read abundance (log10)” value was found to be 0.694.

For “AGTCCAACATGGACCGGTTTTCCCGGTAATCCGTATTTGTA (site CGTCCAACTTA)”, the “recombinant UMI read abundance (log10)” value was found to be 0.

Take “AGTCCAACATGGACCGGTTTTCCCGGTAATCCGTATTTGTA (site GGTCCAACTTA)”: the “recombinant UMI read abundance (log10)” value stood at 0.172.

Consider “AGTCCAACATGGACCGGTTTTCCCGGTAATCCGTATTTGTA (site TGTCCAACTTA)”, for which the “recombinant UMI read abundance (log10)” value amounted to 0.141.

With “AGTCCTTCATGGACCGGTTTTCCCGGTAATCCGTATTTGCA (site AGTCCTTCTTG)”, the “recombinant UMI read abundance (log10)” value is 1.24.

“AGTCTACCATGGACCGGTTTTCCCGGTAATCCGTATTTGCT (site AGTCTACCTAG)”: the “recombinant UMI read abundance (log10)” value was 0.

Consider “AGTGAGACATGGACCGGTTTTCCCGGTAATCCGTATTTGGT (site AATGAGACTAC)”, for which the “recombinant UMI read abundance (log10)” value is 0.439.

In the case of “AGTGAGACATGGACCGGTTTTCCCGGTAATCCGTATTTGGT (site ACTGAGACTAC)”, the “recombinant UMI read abundance (log10)” value came to 0.312.

“AGTGAGACATGGACCGGTTTTCCCGGTAATCCGTATTTGGT (site AGTGAGACTAC)”: the “recombinant UMI read abundance (log10)” value amounted to 1.21.

On to “AGTGAGACATGGACCGGTTTTCCCGGTAATCCGTATTTGGT (site ATTGAGACTAC)”, for which the “recombinant UMI read abundance (log10)” value came to 0.546.

As for “AGTGCAACATGGACCGGTTTTCCCGGTAATCCGTATTTGGC (site AGTGCAACTGC)”, the “recombinant UMI read abundance (log10)” value was found to be 0.

In the case of “AGTGGCTCATGGACCGGTTTTCCCGGTAATCCGTATTTGAG (site AGTGGCTCTCT)”, the “recombinant UMI read abundance (log10)” value stood at 1.27.
